Structures are written as SMILES. Read-outs that look alike come from different tables or passages of the source.

In assay [1] the test system is Plasmodium falciparum 3D-7 (chloroquine-sensitive strain). The assay is described as follows: In vitro antiplasmodial activity assay, microscopic method, strain 3D-7. The settings on record: Plasmodium falciparum. Type of assay: cell-based. The protocol: (§1) The test of antiplasmodial activity began with the culture of P. falciparum 3D-7 and FCR-3 using the modified Trager and Jensen method. The plasmodium was cultured in human O red blood cells diluted to 3% haematocrit in RPMI 1640 medium complemented with 10% human O serum. The medium was made by adding 10.43 g of powder RPMI 1640, 6 g HEPES, 2 g NaHCO3, 25 mg gentamycin, and sterile distilled water up to 1 L. The medium pH was adjusted so that it reached ±7.2. It was sterilized using a 0.22 μm filter and stored at 4°C. The complete plasmodium culture medium was made by adding human serum with a concentration of 10% in the medium. The plasmodium culture was incubated in candle jar in an incubator with a temperature of 37°C and was observed every 24 hours.
(§2) The plasmodium was synchronized to obtain the ring stage by adding 5% of D-sorbitol. The plasmodium was transferred from culture flask to a conical tube, and then it was centrifuged with a speed of 1000 rpm for 10 minutes. After the supernatant was disposed, the sterile 5% sorbitol was added and incubated for 10 minutes at a temperature of 37°C. The plasmodium suspension was centrifuged again; the supernatant was disposed and the plasmodium was washed by adding culture medium. Then, the plasmodium suspension was centrifuged again, and the supernatant was discarded, resulting in a plasmodium in ring stage only. The parasitemia was calculated from a thin blood preparation. The test used 1% parasitemia at 2% haematocrit in RPMI medium which complemented with 10% human O serum.
(§3) Each testing compound was dissolved in RPMI medium. The testing compound in various concentrations with volume of 100 μL was incorporated into the 96-well microplate, and then 100 μL of Plasmodium suspension was added. Each series of concentrations was replicated three times. The microplate was incubated at a temperature of 37°C for 72 hours. At the end of the incubation, a thin blood smear was made using 10% Giemsa stain and observed under a light microscope at 1000x magnification. The percentage of parasitemia (counting a minimum of 1,000 erythrocytes) was calculated from the preparation of thin blood and then used to calculate the percentage of plasmodium growth inhibition. […] Antiplasmodial activity is expressed as IC50, which is the concentration of a compound that is required for 50% inhibition of plasmodium growth. The IC50 value was calculated by probit analysis using SPSS software (IBM Corp., Chicago). The lower the IC50 value obtained, the greater the antiplasmodial activity.

Assay [2] has as its system Plasmodium falciparum FCR-3 (chloroquine-resistant strain). Description: In vitro antiplasmodial activity assay, microscopic method, strain FCR-3. In kind it is cell-based. The settings on record: Plasmodium falciparum. The protocol: as §1, §2, §3
Assay [3] relates to formation of β-hematin (heme polymerization). Description: In vitro heme polymerization inhibitory activity (HPIA) assay. Type of assay: biochemical. Here is the method: The heme polymerization inhibitory activity (HPIA) was conducted according to Basilico et al.'s modified method. The 100 μL of 1 mM hematin in 0.2 M NaOH was added into a microtube. […] Distilled water was used as a negative control. The 50 μL solution of glacial acetic acid (pH 2.6) was added into the microtube to initiate the polymerization reaction and incubated at a temperature of 37°C for 24 hours. Microtubes were centrifuged at 8000 rpm for 10 minutes and the supernatant was discarded and then washed three times using the 200 μL dimethyl sulfoxide (DMSO).Then, the deposition of the hematin crystal was dissolved with 200 μL of 0.1 M NaOH and 100 μL of solution was added into the 96-well microplate.
Absorbance was read using ELISA reader at λ 405 nm. A standard curve was made to illustrate the relationship between the concentration of hematin and its absorbance. The various concentrations of hematin (250; 125; 62.5; 31.25; 15.6; 7.8; and […]) were used to make the standard curve. The heme polymerization inhibition was expressed as IC50, which is the concentration of testing compounds that can inhibit 50% of the formation of β-hematin. The IC50 value was calculated by probit analysis using SPSS software (IBM Corp., Chicago).

Assay [4] shares this test system. The settings on record: read-out: IC50 of chloroquine for heme polymerization inhibition, reference value; threshold reference value; cited from earlier work.
Setting [5] is: read-out: Growth inhibition of P. falciparum Strain 3D-7.
[6] abbreviates: FCR3, read-out: Growth inhibition of P. falciparum Strain FCR-3.

Broadly, the IC50 is the concentration at which inhibition is half-maximal. By inhibition is commonly meant the percentage by which the read-out fell short of the control. For `CCN(CC)CCCC(C)Nc1ccnc2cc(Cl)ccc12` (stereo not drawn) [Chloroquine, reference compound], the IC50 in assay [1] (72 h, read-out: IC50 on P. falciparum 3D-7) is 0.01 ± 0.001 µM; in assay [2] (FCR3, 72 h, read-out: IC50 on P. falciparum FCR-3), 0.11 ± 0.052 µM; in assay [3] (24 hours, 37°C, glacial acetic acid pH 2.6), 1480 µM; in assay [4], 37500 µM. Also, the figures for the inhibition at 0.008 µM in assay [1] (setting [5]) and in assay [2] (setting [6]) were 54.4 ± 12.4% and 18.7 ± 9.23%, respectively. Moreover, the inhibition at 0.016 µM in assay [1] (setting [5]) is 96.4 ± 1.13%; in assay [2] (setting [6]) it was 78.6 ± 4.51%. Further, the results for the inhibition at 0.023 µM in assay [1] (setting [5]) and in assay [2] (setting [6]) were 96.6 ± 1.33% and 79.9 ± 3.86%, respectively. Also, the inhibition at 0.029 µM in assay [1] (setting [5]) was found to be 97.49 ± 0.517%; in assay [2] (setting [6]) it was 82.6 ± 2.94%. The inhibition at 0.037 µM in assay [1] (setting [5]) worked out at 97.77 ± 0.69%; in assay [2] (setting [6]) it was 84.2 ± 2.45%. Further, the “Inhibition of β-hematin” value was found to be 29.080% in assay [3] (compound 0.601 mM); 47.315% in assay [3] (compound 1.221 mM); 56.379% in assay [3] (compound 2.423 mM); 79.906% in assay [3] (compound 4.846 mM); 88.604% in assay [3] (compound 9.692 mM). Also, the β-Hematin formed in assay [3] (compound 0.601 mM) came to 77.787 mM; in assay [3] (compound 1.221 mM), 57.787 mM; in assay [3] (compound 2.423 mM) it was 47.845 mM; in assay [3] (compound 4.846 mM), 22.040 mM; in assay [3] (compound 9.692 mM), 12.500 mM.

Values taken from publication PMC8026324, “In Vitro Antiplasmodial, Heme Polymerization, and Cytotoxicity of Hydroxyxanthone Derivatives” (Journal of Tropical Medicine, 2021).
